{"source": "patent US20250154144A1", "about": "(CHILDREN'S HOSPITAL MEDICAL CENTER, priority 2021, published 2025)", "key": {"THP1 cells": {"test_system": "THP1 cells", "experiment": "Combination drug screening, Cell Titer Glo, 10 × 10 matrix, THP1 cells", "assay_type": "cell-based", "conditions": "single compound range 0-10,000 nM or 0-20,000 nM"}, "FLT3 D835Y": {"target": "T1, FLT3 D835Y (Homo sapiens, UniProt P36888, D835Y)", "T1 construct": "purchased DiscoverX (KINOMEscan)", "T1 sequence (P36888 27-993 D835Y)": "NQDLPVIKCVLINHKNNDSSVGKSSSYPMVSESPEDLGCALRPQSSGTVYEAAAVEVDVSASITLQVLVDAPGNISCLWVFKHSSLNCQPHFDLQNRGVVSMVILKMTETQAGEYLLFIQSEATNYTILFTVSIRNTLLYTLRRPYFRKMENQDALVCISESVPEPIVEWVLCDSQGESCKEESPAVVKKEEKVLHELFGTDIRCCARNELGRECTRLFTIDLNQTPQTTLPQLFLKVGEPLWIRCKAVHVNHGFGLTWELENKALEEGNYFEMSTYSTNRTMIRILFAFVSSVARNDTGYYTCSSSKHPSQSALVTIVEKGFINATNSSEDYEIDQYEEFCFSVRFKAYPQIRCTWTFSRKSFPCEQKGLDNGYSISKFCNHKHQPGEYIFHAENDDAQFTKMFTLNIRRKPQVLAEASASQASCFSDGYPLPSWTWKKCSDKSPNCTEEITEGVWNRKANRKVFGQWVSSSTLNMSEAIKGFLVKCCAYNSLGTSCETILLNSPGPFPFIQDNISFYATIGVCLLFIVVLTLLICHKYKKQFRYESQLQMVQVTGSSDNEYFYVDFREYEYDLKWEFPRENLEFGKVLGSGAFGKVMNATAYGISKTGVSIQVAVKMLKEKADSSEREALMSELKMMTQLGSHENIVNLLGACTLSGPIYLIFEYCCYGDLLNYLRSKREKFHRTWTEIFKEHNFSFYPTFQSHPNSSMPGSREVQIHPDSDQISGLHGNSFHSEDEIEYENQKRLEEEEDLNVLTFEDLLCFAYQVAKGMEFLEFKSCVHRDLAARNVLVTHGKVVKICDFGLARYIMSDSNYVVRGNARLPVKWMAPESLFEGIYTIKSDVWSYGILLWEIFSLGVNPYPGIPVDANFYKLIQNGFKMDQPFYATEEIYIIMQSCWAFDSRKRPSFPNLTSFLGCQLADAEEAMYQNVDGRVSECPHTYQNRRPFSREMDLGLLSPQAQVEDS", "experiment": "DiscoverX KINOMEscan competition binding, FLT3 D835Y"}, "MOLM14(D835Y) cells": {"test_system": "MOLM14(D835Y) cells", "assay_type": "cell-based", "conditions": "MOLM14(D835Y) cells; for Excess HSA Score: 10 × 10"}, "[1]": {"conditions": "combination with Venetoclax (ABT-199)"}}, "note": "Where two headings read alike, the source gives them in different places."}
{"smiles": "COc1cc2ncc(-c3ccnc(N[C@@H]4CCCNC4)n3)n2cc1C(C)(C)O", "note": "[Compound 44, (R)-2-(7-methoxy-3-(2-(piperidin-3-ylamino)pyrimidin-4-yl)imidazo[1,2-a]pyridin-6-yl)propan-2-ol]", "values": [{"measurement": "Comments", "setting": "THP1 cells; with (+)-BAY-1251152", "value": "Synergistic"}, {"measurement": "Excess HSA Score", "setting": "THP1 cells; with (+)-BAY-1251152", "value": "−516.5"}, {"measurement": "Comments", "setting": "THP1 cells; with AMG-232", "value": "Antagonistic"}, {"measurement": "Excess HSA Score", "setting": "THP1 cells; with AMG-232", "value": 733.5}, {"measurement": "Comments", "setting": "THP1 cells; with AZD-5363", "value": "Antagonistic"}, {"measurement": "Excess HSA Score", "setting": "THP1 cells; with AZD-5363", "value": 35.78}, {"measurement": "Comments", "setting": "THP1 cells; with Eprenetapopt/APR-246", "value": "Antagonistic"}, {"measurement": "Excess HSA Score", "setting": "THP1 cells; with Eprenetapopt/APR-246", "value": 460.1}, {"measurement": "Comments", "setting": "THP1 cells; with Ivosidenib", "value": "Synergistic"}, {"measurement": "Excess HSA Score", "setting": "THP1 cells; with Ivosidenib", "value": "−47.26"}, {"measurement": "Comments", "setting": "THP1 cells; with Lenalidomide", "value": "Antagonistic"}, {"measurement": "Excess HSA Score", "setting": "THP1 cells; with Lenalidomide", "value": 877.5}, {"measurement": "Comments", "setting": "THP1 cells; with Palbociclib", "value": "Synergistic"}, {"measurement": "Excess HSA Score", "setting": "THP1 cells; with Palbociclib", "value": "−764"}, {"measurement": "Comments", "setting": "THP1 cells; with Prednisolone", "value": "Antagonistic"}, {"measurement": "Excess HSA Score", "setting": "THP1 cells; with Prednisolone", "value": 68.4575}, {"measurement": "Comments", "setting": "THP1 cells; with SNDX-5613", "value": "Antagonistic"}, {"measurement": "Excess HSA Score", "setting": "THP1 cells; with SNDX-5613", "value": 337.7}, {"measurement": "Comments", "setting": "THP1 cells; with TNO-155", "value": "Synergistic"}, {"measurement": "Excess HSA Score", "setting": "THP1 cells; with TNO-155", "value": "−62.85"}, {"measurement": "Comments", "setting": "THP1 cells; with Trametinib", "value": "Synergistic"}, {"measurement": "Excess HSA Score", "setting": "THP1 cells; with Trametinib", "value": "−453.2"}, {"measurement": "Comments", "setting": "THP1 cells; with Ulixertinib", "value": "Synergistic"}, {"measurement": "Excess HSA Score", "setting": "THP1 cells; with Ulixertinib", "value": "−572.2"}, {"measurement": "Comments", "setting": "THP1 cells; with Venetoclax (ABT-199)", "value": "Synergistic"}, {"measurement": "Excess HSA Score", "setting": "THP1 cells; with Venetoclax (ABT-199)", "value": "−1159"}, {"measurement": "Kd", "setting": "FLT3 D835Y", "value": 0.15, "unit": "nM"}, {"measurement": "Excess HSA Score", "setting": "MOLM14(D835Y) cells; combination with (+)-BAY-1251152", "value": "−808.4"}, {"measurement": "Excess HSA Score", "setting": "MOLM14(D835Y) cells; combination with AMG-232", "value": "−620.9"}, {"measurement": "Excess HSA Score", "setting": "MOLM14(D835Y) cells; combination with AZD-5363", "value": "−290.5"}, {"measurement": "Excess HSA Score", "setting": "MOLM14(D835Y) cells; combination with Eprenetapopt/APR-246", "value": 75.21}, {"measurement": "Excess HSA Score", "setting": "MOLM14(D835Y) cells; combination with Ivosidenib", "value": 21.01}, {"measurement": "Excess HSA Score", "setting": "MOLM14(D835Y) cells; combination with Lenalidomide", "value": 270.3924}, {"measurement": "Excess HSA Score", "setting": "MOLM14(D835Y) cells; combination with Palbociclib", "value": "−370.2"}, {"measurement": "Excess HSA Score", "setting": "MOLM14(D835Y) cells; combination with Prednisolone", "value": 409.4}, {"measurement": "Excess HSA Score", "setting": "MOLM14(D835Y) cells; combination with SNDX-5613", "value": 3.1084}, {"measurement": "Excess HSA Score", "setting": "MOLM14(D835Y) cells; combination with TNO-155", "value": "−655.3"}, {"measurement": "Excess HSA Score", "setting": "MOLM14(D835Y) cells; combination with Trametinib", "value": "−420"}, {"measurement": "Excess HSA Score", "setting": "MOLM14(D835Y) cells; combination with Ulixertinib", "value": "−254.1"}, {"measurement": "Excess HSA Score", "setting": "MOLM14(D835Y) cells; [1]", "value": "−1120.4885"}, {"measurement": "Comments", "setting": "MOLM14(D835Y) cells; combination with SNDX-5613", "value": "Antagonistic"}, {"measurement": "Comments", "setting": "MOLM14(D835Y) cells; [1]", "value": "Synergistic"}]}
